Measured values: paper PMC9354638, “Targeting p21-activated kinase 4 (PAK4) with pyrazolo[3,4-d]pyrimidine derivative SPA7012 attenuates hepatic ischaemia-reperfusion injury in mice” (Journal of Enzyme Inhibition and Medicinal Chemistry, 2022)

Assays:
[1] = tested on: Nrf2 transcriptional activity (ARE); assay: Nrf2 reporter gene assay (ARE luciferase) in HEK293T cells; type: cell-based, human; conditions: 24 h transfection
Protocol: The human embryonic kidney cell line HEK293T was obtained from the American Type Culture Collection (Manassas, VA, USA). For the Nrf2 reporter gene assay, 1 μg of a plasmid containing a promoter with an ARE driving luciferase expression was used. Exogenous proteins were expressed by transfecting HEK293T cells with 1 μg of Nrf2 and PAK4 with Lipofectamine 3000 (Invitrogen, Carlsbad, CA, USA). Luciferase activity was measured using a Dual-Luciferase Reporter Assay (Promega, Madison, WI, USA) by Lumat LB 9507 (Berthold, Bad Wildbad, Germany).

[2] = target: T1, PAK1 (Homo sapiens, UniProt Q13153); assay: HotSpot kinase assay, PAK subtype selectivity; type: biochemical; conditions: relative percentage inhibition at 20 μM with staurosporine
T1 construct: purchased Reaction Biology Corporation (Malvern, PA, USA)
Protocol: (§1) To examine the enzyme activity, HotSpot kinase assay was performed at Reaction Biology Corporation (Malvern, PA, USA). The kinase and substrate pairs were prepared in reaction buffer: 20 mM HEPES at pH 7.5, 10 mM MgCl2, 1 mM EGTA, 0.02% Brij 35, 0.02 mg/mL BSA, 0.1 mM Na3VO4, 2 mM DTT, and 1% DMSO. Compounds were added into the kinase reaction mixture and incubated for 20 min. Then, ^32 P-ATP was introduced to the mixture to initiate the reaction carried out at 10 μM of ATP concentration. After 2 h at room temperature, the mixture was spotted onto P81 ion exchange paper and kinase activity was then evaluated utilising the filter-binding method. Compounds were tested for single dose enzyme inhibition at a concentration of 20 μM. For the control compound, staurosporine was tested in a 10-dose IC50 mode. To determine the IC50 value, the compounds were tested for 10-doses with 3-fold serial dilution starting at 100 μM.
(§2) Synthesised compounds were evaluated for their in vitro PAK4 enzyme inhibitory activities. In vitro kinase assays were performed using HotSpot kinase assays for relative enzyme inhibitory activity at a single concentration (20 μM) and IC50 assessment at an ATP concentration of 10 μM (Figure 1(B)). […] For the allosteric pocket binder, cyclohexyl group (SPA7012) was preferable to the smaller dimethyl (SPA7011) or hydroxymethyl group (SPA7013), and the aromatic ring (SPA7014) reduced activity compared to the saturated ring (SPA7012). In vitro enzyme IC50 values appeared in the order of SPA7012, SPA7017, and SPA7016. […] Molecular docking analysis was performed on the human PAK4 catalytic domain structure complexed with GNE-2861 (PDB code: 4O0V). The binding pose of SPA7012 overlapped well with the crystal structure of GNE-2861, with the allosteric binder properly positioned in the specific back pocket. The oxygen atom in the tertiary alcohol of the hydrophobic allosteric binder formed hydrogen bonds with the backbone of Phe459 and the side chain of Glu366 (Figure 1(D)). The amine group and nitrogen atom in the pyrazolo[3,4-d]pyrimidine core scaffold also formed hydrogen bonds with Lue398 at the hinge region. Finally, SPA7012 was decided as a lead compound for further examination with satisfactory potency and subtype selectivity.

[3] = target: T2, PAK6 (Homo sapiens, UniProt Q9NQU5); assay: HotSpot kinase assay, PAK subtype selectivity; type: biochemical; conditions: relative percentage inhibition at 20 μM with staurosporine
T2 construct: purchased Reaction Biology Corporation (Malvern, PA, USA)
Protocol: as §1, §2

[4] = target: T3, PAK5 (Homo sapiens, UniProt Q9P286); assay: HotSpot kinase assay, PAK subtype selectivity; type: biochemical
T3 construct: purchased Reaction Biology Corporation (Malvern, PA, USA)
Protocol: as §1, §2

[5] = target: T4, PAK2 (Homo sapiens, UniProt Q13177); assay: HotSpot kinase assay, PAK subtype selectivity; type: biochemical; conditions: relative percentage inhibition at 20 μM with staurosporine
T4 construct: purchased Reaction Biology Corporation (Malvern, PA, USA)
Protocol: as §1, §2

T3 sequence (Q9P286 whole entry): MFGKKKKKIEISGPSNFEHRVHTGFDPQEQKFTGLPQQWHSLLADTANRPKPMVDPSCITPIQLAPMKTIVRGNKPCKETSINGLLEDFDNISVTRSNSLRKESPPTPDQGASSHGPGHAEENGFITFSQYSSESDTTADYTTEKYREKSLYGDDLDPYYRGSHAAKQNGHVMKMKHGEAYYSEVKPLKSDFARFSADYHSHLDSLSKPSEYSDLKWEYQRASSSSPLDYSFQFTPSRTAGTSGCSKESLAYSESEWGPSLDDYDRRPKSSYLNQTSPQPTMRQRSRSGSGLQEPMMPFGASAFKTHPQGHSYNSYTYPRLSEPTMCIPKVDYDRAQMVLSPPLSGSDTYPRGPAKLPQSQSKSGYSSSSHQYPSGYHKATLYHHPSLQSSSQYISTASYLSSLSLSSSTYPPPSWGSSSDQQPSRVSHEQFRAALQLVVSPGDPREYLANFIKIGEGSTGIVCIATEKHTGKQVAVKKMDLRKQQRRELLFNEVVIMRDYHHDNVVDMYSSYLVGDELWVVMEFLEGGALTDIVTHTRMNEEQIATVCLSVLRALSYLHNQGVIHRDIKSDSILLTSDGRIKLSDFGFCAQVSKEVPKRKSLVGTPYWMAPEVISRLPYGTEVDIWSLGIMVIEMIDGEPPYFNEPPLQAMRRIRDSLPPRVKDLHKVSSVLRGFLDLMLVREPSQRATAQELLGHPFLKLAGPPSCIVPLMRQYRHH
T1 sequence (Q13153 whole entry): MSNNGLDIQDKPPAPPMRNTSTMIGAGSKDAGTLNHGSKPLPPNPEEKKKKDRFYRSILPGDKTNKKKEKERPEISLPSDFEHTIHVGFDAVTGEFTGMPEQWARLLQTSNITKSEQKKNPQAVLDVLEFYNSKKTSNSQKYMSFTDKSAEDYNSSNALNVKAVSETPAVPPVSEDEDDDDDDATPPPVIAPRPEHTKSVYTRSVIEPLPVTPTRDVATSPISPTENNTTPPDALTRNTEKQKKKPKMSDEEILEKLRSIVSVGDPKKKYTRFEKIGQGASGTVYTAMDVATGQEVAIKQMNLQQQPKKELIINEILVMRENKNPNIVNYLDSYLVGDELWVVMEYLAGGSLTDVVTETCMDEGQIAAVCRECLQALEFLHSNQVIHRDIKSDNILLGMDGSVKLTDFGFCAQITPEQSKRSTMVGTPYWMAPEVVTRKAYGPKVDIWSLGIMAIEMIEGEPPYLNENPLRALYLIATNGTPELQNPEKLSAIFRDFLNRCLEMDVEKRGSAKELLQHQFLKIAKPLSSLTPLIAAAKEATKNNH
T2 sequence (Q9NQU5 whole entry): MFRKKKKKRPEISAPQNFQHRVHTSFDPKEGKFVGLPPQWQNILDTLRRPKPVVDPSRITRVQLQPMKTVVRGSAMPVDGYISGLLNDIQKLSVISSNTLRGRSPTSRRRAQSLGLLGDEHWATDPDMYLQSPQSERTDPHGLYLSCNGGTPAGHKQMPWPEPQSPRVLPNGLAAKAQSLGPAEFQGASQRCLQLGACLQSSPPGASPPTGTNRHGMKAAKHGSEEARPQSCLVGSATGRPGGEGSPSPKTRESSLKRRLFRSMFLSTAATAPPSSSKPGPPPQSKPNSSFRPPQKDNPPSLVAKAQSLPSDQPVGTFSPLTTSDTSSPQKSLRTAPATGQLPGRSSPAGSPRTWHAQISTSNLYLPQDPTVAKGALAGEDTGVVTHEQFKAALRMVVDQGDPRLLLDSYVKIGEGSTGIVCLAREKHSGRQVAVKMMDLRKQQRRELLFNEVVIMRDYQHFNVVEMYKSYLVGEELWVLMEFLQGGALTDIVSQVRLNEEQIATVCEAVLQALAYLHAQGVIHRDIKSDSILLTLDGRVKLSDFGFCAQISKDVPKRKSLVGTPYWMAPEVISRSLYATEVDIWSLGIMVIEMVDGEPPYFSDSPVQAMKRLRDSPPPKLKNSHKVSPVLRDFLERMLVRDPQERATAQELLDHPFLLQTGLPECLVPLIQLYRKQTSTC
T4 sequence (Q13177 whole entry): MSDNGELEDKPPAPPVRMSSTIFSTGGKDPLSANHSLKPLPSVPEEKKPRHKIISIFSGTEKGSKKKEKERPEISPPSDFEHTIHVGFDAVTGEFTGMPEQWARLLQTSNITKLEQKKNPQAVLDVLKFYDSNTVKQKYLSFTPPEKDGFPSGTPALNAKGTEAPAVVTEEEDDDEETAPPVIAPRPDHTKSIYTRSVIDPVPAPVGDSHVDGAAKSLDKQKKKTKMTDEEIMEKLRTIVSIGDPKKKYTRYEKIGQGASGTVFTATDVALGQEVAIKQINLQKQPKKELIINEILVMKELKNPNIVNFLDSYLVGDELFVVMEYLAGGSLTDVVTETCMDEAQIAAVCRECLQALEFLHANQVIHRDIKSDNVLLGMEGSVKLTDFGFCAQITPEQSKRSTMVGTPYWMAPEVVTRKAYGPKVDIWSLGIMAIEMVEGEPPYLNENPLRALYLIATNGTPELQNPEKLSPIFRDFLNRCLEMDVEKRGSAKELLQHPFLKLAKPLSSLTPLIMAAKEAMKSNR

Cc1nn(-c2cccc(C#CC3(O)CCCCC3)c2)c2ncnc(N)c12 [Compound 14b, 3-(4-Amino-3-methylpyrazolo[3,4-d]pyrimidin-1-yl)phenylethynylcyclohexan-1-ol]
Nrf2 transcriptional activity (ARE luciferase activity) [1]: increased
PAK1 % inhibitory activity [2]: 16%
PAK6 % inhibitory activity [3]: 36%
IC50 ([4]; HotSpot kinase assay): > 100 µM
PAK5 % inhibitory activity ([4]; relative percentage inhibition at 20 μM with staurosporine): 52%
PAK2 % inhibitory activity [5]: 36%
